Results as given in ChEMBL document CHEMBL3044874, “Synthesis and characterization of some heterocyclic schiff bases: potential anticonvulsant agents” (Med Chem Res, 2011).
The source made the active and inactive calls. The rule behind the calls is not given here.

Key:
Mus musculus [1] = assay: Anticonvulsant activity in Mus musculus Swiss albino (mouse) assessed as protection against maximal electroshock-induced seizure at 300 mg/kg, ip measured at 4 hr; type: functional, organism-based; parameters: dose 300 mg/kg
Mus musculus [2] = assay: Anticonvulsant activity in Mus musculus Swiss albino (mouse) assessed as protection against maximal electroshock-induced seizure at 300 mg/kg, ip measured at 0.5 hr; type: functional, organism-based; parameters: dose 300 mg/kg
Mus musculus [3] = assay: Neurotoxicity against Mus musculus Swiss albino (mouse) at 300 mg/kg, ip measured at 4 hr by rota rod test; type: toxicity, organism-based; parameters: dose 300 mg/kg, route intraperitoneal; conditions: in vivo
Mus musculus [4] = assay: Neurotoxicity against ip dosed Mus musculus Swiss albino (mouse) at 0.5 hr by rota rod test; type: toxicity, organism-based; conditions: in vivo
Mus musculus [5] = assay: Anticonvulsant activity in Mus musculus Swiss albino (mouse) assessed as protection against strychnine-induced seizure at 300 mg/kg, ip measured at 4 hr; type: functional, organism-based; parameters: dose 300 mg/kg
Mus musculus [6] = assay: Anticonvulsant activity in Mus musculus Swiss albino (mouse) assessed as protection against strychnine-induced seizure at 300 mg/kg, ip measured at 0.5 hr; type: functional, organism-based; parameters: dose 300 mg/kg
Mus musculus [7] = assay: Anticonvulsant activity in ip dosed Mus musculus Swiss albino (mouse) assessed as protection against pentylenetetrazole-induced seizure at 4 hr; type: functional; conditions: read-out: MED
Mus musculus [8] = assay: Anticonvulsant activity in ip dosed Mus musculus Swiss albino (mouse) assessed as protection against pentylenetetrazole-induced seizure at 0.5 hr; type: functional; conditions: read-out: MED
[9] = Protection index, ratio TD50 for neurotoxicity to ED50 for protection against maximal electroshock-induced seizure in Mus musculus Swiss albino (mouse); type: toxicity, organism-based; conditions: in vivo, read-out: Ratio TD50/ED50
[10] = Neurotoxicity against ip dosed Mus musculus Swiss albino (mouse) by rota rod test; type: toxicity, organism-based; conditions: in vivo
Mus musculus [11] = assay: Anticonvulsant activity in Mus musculus Swiss albino (mouse) assessed as protection against strychnine-induced seizure at 300 mg/kg, ip; type: functional, organism-based; parameters: dose 300 mg/kg
Mus musculus [12] = assay: Anticonvulsant activity in ip dosed Mus musculus Swiss albino (mouse) assessed as protection against pentylenetetrazole-induced seizure; type: functional
Mus musculus [13] = assay: Anticonvulsant activity in Mus musculus Swiss albino (mouse) assessed as protection against maximal electroshock-induced seizure at 300 mg/kg, ip; type: functional, organism-based; parameters: dose 300 mg/kg
Mus musculus [14] = assay: Anticonvulsant activity in ip dosed Mus musculus Swiss albino (mouse) assessed as protection against maximal electroshock-induced seizure at 0.5 hr; type: functional; conditions: read-out: MED
Mus musculus [15] = assay: Neurotoxicity against ip dosed Mus musculus Swiss albino (mouse) at 4 hr by rota rod test; type: toxicity, organism-based; conditions: in vivo
Mus musculus [16] = assay: Anticonvulsant activity in ip dosed Mus musculus Swiss albino (mouse) assessed as protection against strychnine-induced seizure at 4 hr; type: functional; conditions: read-out: MED
Mus musculus [17] = assay: Anticonvulsant activity in ip dosed Mus musculus Swiss albino (mouse) assessed as protection against strychnine-induced seizure at 0.5 hr; type: functional; conditions: read-out: MED
Mus musculus [18] = assay: Neurotoxicity against Mus musculus Swiss albino (mouse) at 300 mg/kg, ip measured at 0.5 hr by rota rod test; type: toxicity, organism-based; parameters: dose 300 mg/kg, route intraperitoneal; conditions: in vivo
Mus musculus [19] = assay: Anticonvulsant activity in ip dosed Mus musculus Swiss albino (mouse) assessed as protection against maximal electroshock-induced seizure at 4 hr; type: functional; conditions: read-out: MED
Rattus norvegicus [20] = assay: Anticonvulsant activity in Rattus norvegicus Wistar (rat) assessed as protection against maximal electroshock-induced seizure at 30 mg/kg, po measured at 4 hr; type: functional, organism-based; parameters: dose 30 mg/kg
Rattus norvegicus [21] = assay: Anticonvulsant activity in Rattus norvegicus Wistar (rat) assessed as protection against maximal electroshock-induced seizure at 30 mg/kg, po measured at 2 hr; type: functional, organism-based; parameters: dose 30 mg/kg
Rattus norvegicus [22] = assay: Anticonvulsant activity in Rattus norvegicus Wistar (rat) assessed as protection against maximal electroshock-induced seizure at 30 mg/kg, po measured at 1 hr; type: functional, organism-based; parameters: dose 30 mg/kg
Rattus norvegicus [23] = assay: Anticonvulsant activity in Rattus norvegicus Wistar (rat) assessed as protection against maximal electroshock-induced seizure at 30 mg/kg, po measured at 0.5 hr; type: functional, organism-based; parameters: dose 30 mg/kg
Rattus norvegicus [24] = assay: Anticonvulsant activity in Rattus norvegicus Wistar (rat) assessed as protection against maximal electroshock-induced seizure at 30 mg/kg, po measured at 0.25 hr; type: functional, organism-based; parameters: dose 30 mg/kg
Mus musculus [25] = assay: Anticonvulsant activity in ip dosed Mus musculus Swiss albino (mouse) assessed as protection against strychnine-induced seizure; type: functional
Mus musculus [26] = assay: Anticonvulsant activity in Mus musculus Swiss albino (mouse) assessed as protection against pentylenetetrazole-induced seizure at 300 mg/kg, ip; type: functional, organism-based; parameters: dose 300 mg/kg
Mus musculus [27] = assay: Anticonvulsant activity in ip dosed Mus musculus Swiss albino (mouse) assessed as protection against maximal electroshock-induced seizure; type: functional

Structure (SMILES) | Activity (Mus musculus [1]) | Activity (Mus musculus [2]) | Activity (Mus musculus [3]) | MTC (Mus musculus [4]) | Activity (Mus musculus [5]) | Activity (Mus musculus [6]) | minimal effective dose (Mus musculus [7]) | minimal effective dose (Mus musculus [8]) | selectivity ratio [9] | TD50 [10] | Activity (Mus musculus [11]) | ED50 (Mus musculus [12]) | Activity (Mus musculus [13]) | minimal effective dose (Mus musculus [14]) | minimal effective dose (Mus musculus [16]) | minimal effective dose (Mus musculus [17]) | Activity (Mus musculus [18]) | further results
CC12CCC(C/C1=N/Cc1cccnc1)C2(C)C (stereo not given) | inactive | inactive | Non-toxic | 300 mg/kg | inactive | inactive | 100 mg/kg | 30 mg/kg | 5.45 | 176 mg/kg | inactive | 32.2 mg/kg | inactive |  |  |  |  | 
C(=N\Cc1cccnc1)/c1c[nH]c2ccccc12 | inactive |  |  | 100 mg/kg |  |  | 30 mg/kg | 30 mg/kg | > 10 | > 500 mg/kg | inactive | 6.47 mg/kg | inactive | 300 mg/kg | 100 mg/kg | 300 mg/kg |  | MTC (Mus musculus [15]): 100 mg/kg
c1cncc(CN=C2CCCCC2)c1 | inactive | inactive | Non-toxic |  | inactive | inactive | 30 mg/kg | 30 mg/kg | > 10 | > 500 mg/kg | inactive | 14.2 mg/kg | inactive |  |  |  | Non-toxic | 
COc1ccc(/C=N/Cc2cccnc2)cc1OC | inactive |  | Non-toxic |  | inactive | inactive | 30 mg/kg | 30 mg/kg | > 10 | > 500 mg/kg | inactive | 11.7 mg/kg | inactive | 300 mg/kg |  |  | Non-toxic | 
O=[N+]([O-])c1ccc(/C=N/Cc2cccnc2)cc1 |  |  | Non-toxic |  |  |  | 300 mg/kg | 100 mg/kg | > 10 | > 500 mg/kg |  |  |  | 100 mg/kg | 100 mg/kg | 30 mg/kg | Non-toxic | minimal effective dose (Mus musculus [19]): 100 mg/kg; Activity (Rattus norvegicus [20]): inactive; Activity (Rattus norvegicus [21]): inactive; Activity (Rattus norvegicus [22]): inactive; Activity (Rattus norvegicus [23]): inactive; Activity (Rattus norvegicus [24]): inactive; ED50 (Mus musculus [25]): 22.2 mg/kg; Activity (Mus musculus [26]): inactive; ED50 (Mus musculus [27]): 61.4 mg/kg
